Experimental data as given in patent publication US20080038198A1, “Method Of Screening Molecule Associated With Psychiatric Disorder” (MITSUBISHI PHARMA CORPORATION, priority 2004, published 2008).
“Also recorded” adds a separate entry of the source.

Columns and labels:
Assay type in all cases: in vivo, Caenorhabditis elegans
[1] = system: nematodes; assay: screening for chemical substance inhibiting establishment of MAP-induced behavioral sensitization; settings: ondansetron 1 or 10 μM with 300 μM MAP and overnight; MAP challenge next day
Method: In an incubator inside of which was maintained at 20° C., nematodes were bred on an Escherichia coli lawn prepared by applying the E. coli OP50 strain on a 60-mm NGM plate (Genetics, 77, pp. 71-94, 1974).
MAP hydrochloride was dissolved in pure water to prepare a 30 mM solution, and 50 μL of the solution was applied to a 35-mm NGM plate (5 mL) to prepare a 300 μM MAP plate. This MAP plate was further applied with 50 μL of an ondansetron solution (0.1 or 1 mM) dissolved in 100 mM NaCl or 0.1 N hydrochloric acid and adjusted to neutral pH by using NaOH to complete an assay plate. Nematodes (adults) bred on the Escherichia coli lawn were washed with S-basal buffer (Genetics, 77, pp. 71-94, 1974) for a short period of time, and then incubated on each of the aforementioned assay plates at 20° C. for one hour with light shielding. For this procedure, the periphery of each assay plate was applied with a 3.5 M sucrose solution to prevent nematodes from invading the back of the assay plate. […] On the following day, the nematodes were washed with S-basal buffer for a short period of time and transferred onto a MAP challenge plate prepared by applying 50 μL of a 10 μM MAP solution on a 35-mm NGM plate (5 mL), and the number of body bends over 20 seconds was counted under a stereoscopic microscope.

[2] = system: nematodes; assay: slowing response: number of body bends over 20 seconds on drug-containing assay plate; settings: acute treatment on plate containing no feed
Method: Nematodes were bred on a lawn of E. coli OP50 coated on a 60-mm NGM plate (Genetics, 77, pp. 71-94, 1974) in an incubator at 20° C.
MAP hydrochloride was dissolved in sterilized pure water at a 100-fold concentration, and 50 μL of the solution was applied to a 35-mm NGM plate (5 mL). As a control group, sterilized water used as a solvent was similarly applied to prepare an assay plate. Apomorphine (hereinafter also abbreviated as “APO”) dissolved in 0.1% aqueous ascorbic acid as a solvent was applied as a solution of 100-fold concentration in a similar manner to prepare an assay plate. For a control group, 0.1% aqueous ascorbic acid was used. The periphery of each assay plate was applied with a 3.5 mol/L sucrose solution to prevent nematodes from invading the back of the plate. Adult-stage nematodes bred on the E. coli lawn were washed with S-basal buffer (Genetics, 77, pp. 71-94, 1974), then transferred to each of the aforementioned assay plates, and left at room temperature with light shielding for one hour in the MAP treatment or 30 minutes in the APO treatment, and the number of body bends over 20 seconds was counted under a stereoscopic microscope. […]

[3] = system: nematodes; assay: behavioral sensitization analysis: MAP pretreatment, washout on E. coli lawn, then drug challenge and body bend count
Method: MAP hydrochloride was dissolved in sterilized pure water at a 100-fold concentration, and 50 μL of the solution was applied to a 35-mm NGM plate (5 mL). As a control group, sterilized water used as a solvent was similarly applied to prepare an assay plate. Apomorphine (hereinafter also abbreviated as “APO”) dissolved in 0.1% aqueous ascorbic acid as a solvent was applied as a solution of 100-fold concentration in a similar manner to prepare an assay plate. For a control group, 0.1% aqueous ascorbic acid was used. The periphery of each assay plate was applied with a 3.5 mol/L sucrose solution to prevent nematodes from invading the back of the plate. Adult-stage nematodes bred on the E. coli lawn were washed with S-basal buffer (Genetics, 77, pp. 71-94, 1974), then transferred to each of the aforementioned assay plates, and left at room temperature with light shielding for one hour in the MAP treatment or 30 minutes in the APO treatment, and the number of body bends over 20 seconds was counted under a stereoscopic microscope. In the behavioral sensitization analysis, nematodes treated on the MAP-containing NGM plate for one hour were returned to the E. coli lawn, bred at 20° C. for a predetermined time and then treated with various drugs, and their behavior was observed.

[4] = system: nematodes; assay: imipramine treatment: number of eggs laid during 90 minutes
Method: Nematodes washed with S-basal buffer were transferred onto a 35-mm assay plate prepared by applying imipramine (hereinafter abbreviated as “IMI”) in the same manner as that used for MAP, and the number of eggs laid during 90 minutes was counted. Five nematodes were transferred to each plate, and the count was obtained for each plate.

Cc1nccn1CC1CCc2c(c3ccccc3n2C)C1=O (stereo not drawn) [ondansetron]
establishment of MAP-induced behavioral sensitization [1]: inhibition of establishment of MAP-induced behavioral sensitization; also recorded: exhibits an antagonistic action on the establishment of MAP-induced behavioral sensitization

CN[C@@H](C)Cc1ccccc1 [MAP, methamphetamine]
locomotion (slowing response) [2]: inhibited locomotion of nematodes in a concentration-dependent manner; also recorded: inhibited the locomotion in a concentration-dependent manner | susceptibility to MAP-induced slowing response (establishment of behavioral sensitization) ([3]; 300 μmol/L MAP experienced on the previous day, MAP challenge next day): increased susceptibility to a treatment with MAP was observed; also recorded: the susceptibility was increased | dependence of establishment of behavioral sensitization on MAP pretreatment concentration ([3]; MAP pretreatment on previous day at various concentrations): dependent on the MAP concentration used for pretreatment; also recorded: dependent on the concentration of MAP experienced on the previous day | APO-induced slowing response after MAP pretreatment (cross of behavioral sensitization) ([3]; MAP pretreatment, APO challenge): increased susceptibility to APO and induced slowing responses even at a low concentration; also recorded: enhanced by an MAP pretreatment | duration of MAP-induced behavioral sensitization ([3]; MAP washout period from pretreatment to challenge): at least 2 days | influence of MAP pretreatment on IMI-induced egg-laying behavior ([4]; MAP treatment on the previous day, IMI challenge): had no effect on IMI-induced egg-laying behavior; also recorded: had no influence on the egg-laying behavior promoted by IMI

CN1CCc2cccc3c2[C@H]1Cc1ccc(O)c(O)c1-3 [APO, Apomorphine]
locomotion (slowing response) [2]: induced slowing responses in a concentration-dependent manner; also recorded: inhibited the locomotion in a concentration-dependent manner

CN(C)CCCN1c2ccccc2CCc2ccccc21 [IMI, imipramine]
egg laying behavior ([4]; IMI applied on NGM plate, eggs laid during 90 minutes): increased egg laying behavior in a concentration-dependent manner; also recorded: promoted egg laying in a concentration-dependent manner
